Results as given in PMC9544318, “Advanced Pyrrolidine‐Carbamate Self‐Immolative Spacer with Tertiary Amine Handle Induces Superfast Cyclative Drug Release” (Chemmedchem, 2022).

Key:
Format in all cases: physicochemical
[1] = Carbamate cleavage study of SI spacer-CPT modules (CPT release by HPLC); settings: for half-life at 1 mM: CPT release by HPLC, read-out: carbamate half-life (t1/2) (converted)
Description: We undertook the structural optimization of the pyrrolidine‐carbamate SI spacer Sp2, aimed at decreasing the carbamate half‐life (t 1/2) for a faster hydroxy cargo release. The molecular structures of the synthesized SI spacers are reported in Figure 2 (all synthetic procedures are reported in the Supporting Information). Here, the Sp2 pyrrolidine ring was replaced by either a piperidine (in Sp4) or an isoxazolidine (in Sp5) cycle. In particular, Sp4 was designed to assess the impact of the cyclic amine ring size on the SI spacer degradation.[20] On the other hand, the use of an isoxazolidine ring in Sp5 aimed at evaluating the contribution of the “α‐effect” to the spacer reactivity.[21] While Sp4 was prepared starting from racemic 2‐piperidinecarbaldehyde, the synthesis of Sp5 was inspired by Bode's route to 5‐oxaproline.[22] Moreover, as we recently observed the inhibitory effects on the spacer cyclization given by a phosphate monoester group,[23] we devised the SI spacer modification with a basic handle. Since at physiological pH (approximately 7.4) the pyrrolidine is mostly present as protonated species, a second amine handle may force the pyrrolidine deprotonation, thus lowering its pK a value and increasing its nucleophilic character.[24] To this end, SI spacers Sp3 and Sp6/8 were endowed with a tertiary amine handle connected either at the carbamate N atom (in Sp3 and Sp7) or at the pyrrolidine ring (in Sp6 and Sp8). While the former spacers were rapidly obtained by reductive amination of Boc‐L‐prolinal, the latter were prepared by multistep synthesis, starting from oxygenated proline derivatives, such as 4‐oxo‐L‐proline and hydroxyproline. Firstly, the exocyclic secondary amine of SI spacers Sp3/8 was conjugated to the tertiary hydroxy group of the anticancer drug Camptothecin (CPT) via carbamate bond. As described recently,[19, 23] the final spacer‐drug modules Sp3/8‐CPT (Figure 2) were isolated as trifluoroacetate salts. These compounds were dissolved in a DMSO/phosphate buffer (pH 7.5) mixture and incubated at 37 °C, followed by aliquot collection at different time points and CPT release analysis by HPLC. The percentage of intact carbamate calculated from peak integrals was plotted versus time, and the spacer cyclization rates were estimated in terms of carbamate half‐life (t 1/2).
Carbamate Cleavage Studies
Experimental Procedure for Sp-CPT Modules
Stock solutions of lyophilized SI spacer-CPT modules (concentration: 10 mM in DMSO) were diluted 1:10 (final concentration: 1 mM) with 25 mM phosphate buffer (pH 7.4). Immediately after preparation, the mixtures were incubated at 37 °C. Aliquots were collected at different time points and diluted 1:4 (final concentration: 250 μ M) with a blocking buffer (8:2 H2O/CH3CN + 0.2% TFA).
The diluted aliquots were injected into an analytical HPLC-PDA system (see Materials and Methods), using the following parameters: […]
Gradient From 10% B to 50% B in 26 min.
Areas under the curve (AUC) of the detected peaks were measured using software associated to the HPLC systems. The rate of free OH release from the starting carbamate were obtained by calculating the relative ratios of AUC values corresponding to the amine -bearing prodrug and the free payload. Data were plotted versus time and half-lives (t1/2) were calculated by non -linear fitting (exponential, one-phase decay) using GraphPad Prism software .
(1 picture or pasted object on this page, not shown here)

[2] = CPT release under acidic conditions (acetate buffer, pH 5) mimicking the lysosomal compartment; settings: for carbamate stability under acidic conditions: compared with pH 7.5
Procedure: [26] The release of free CPT was also studied upon Sp2-CPT and Sp3-CPT incubation under more acidic conditions (acetate buffer, pH 5), mimicking the lysosomal compartment.

[3] = Solubility observed in aqueous buffer/DMSO mixture of the release study
Procedure: [25] The stability of carbamate Sp4-CPT may be ascribed to a suboptimal conformation of the piperidine spacer compared to the native pyrrolidine. […] The stability of Sp5-CPT was also analysed in a phosphate buffer solution at pH 7.5, with DMSO content increased to 20 % DMSO.

[4] = DMSO/phosphate buffer (pH 7.5), 37 °C

Row | SMILES | half-life at 1 mM [1, 4] | carbamate stability under acidic conditions [2] | other results
1 | CC[C@@]1(OC(=O)N(CCCN(C)C)C[C@@H]2CCCN2)C(=O)OCc2c1cc1n(c2=O)Cc2cc3ccccc3nc2-1 [Sp7-CPT] | 3.3 h | – | –
2 | CC[C@@]1(OC(=O)N(CCN(C)C)C[C@@H]2CCCN2)C(=O)OCc2c1cc1n(c2=O)Cc2cc3ccccc3nc2-1 [Sp3-CPT] | 0.9 h | much more stable | half-life compared with reference Sp2-CPT [1, 4]: four times shorter; drug release activity under acidic conditions ([2]; compared with Sp2 reference): consistently higher drug release activity than the Sp2 reference
3 | CC[C@@]1(OC(=O)N(C)C[C@@H]2CCCN2)C(=O)OCc2c1cc1n(c2=O)Cc2cc3ccccc3nc2-1 [Sp2-CPT, reference compound] | 3.6 h | much more stable | –
4 | CC[C@@]1(OC(=O)N(C)C[C@@H]2C[C@@H](OCCN(C)C)CN2)C(=O)OCc2c1cc1n(c2=O)Cc2cc3ccccc3nc2-1 [Sp8-CPT] | 3.2 h | – | –
5 | CC[C@@]1(OC(=O)N(C)C[C@@H]2CCON2)C(=O)OCc2c1cc1n(c2=O)Cc2cc3ccccc3nc2-1 [Sp5-CPT] | – | – | cyclative carbamate cleavage (CPT release) [1, 4]: complete inhibition of the cyclative carbamate cleavage; CPT release ([1]; phosphate buffer pH 7.5, 20 % DMSO): no CPT release was observed; solubility ([3]; 9 : 1 aqueous buffer/DMSO mixture, pH 7.5): partially insoluble; solubility ([3]; phosphate buffer pH 7.5, DMSO content increased to 20 %): perfectly soluble
6 | CC[C@@]1(OC(=O)N(C)C[C@@H]2C[C@H](N(C)C)CN2)C(=O)OCc2c1cc1n(c2=O)Cc2cc3ccccc3nc2-1 [Sp6-CPT] | 5.5 h | – | –
